These results are taken from patent US20090176732A1, “PROTECTED NUCLEOTIDE ANALOGS” (Alios BioPharma Inc., priority 2007, published 2009).

A value given as a limit tells only on which side of the number the result lay.

Usually EC50 stands for the concentration needed to bring the measured effect to its halfway point. The EC90 is the concentration at which the effect reaches the 90% level. Lower therefore signals greater potency. One may read the CC50 as the concentration at which the toxic effect on the cells reaches its halfway point. A lower CC50 goes with greater toxicity to the cells.

In data set [1] the test system is HCV RNA-replicating cell line, AVA5 (genotype 1b, subgenomic replicon). Kind of data set: HCV replicon assay, intracellular HCV RNA levels by blot hybridization. As to conditions: for EC50: concentration giving 2-fold depression of HCV RNA vs untreated cultures; for EC50 / EC90: normalized to β-actin RNA, daily treatment for three days, assessed at 72 hours, ± S.D.; for EC90: concentration giving 10-fold depression of HCV RNA vs untreated cultures; for Antiviral activity (in words): summary of the Table 1 results in the text. In kind it is cell-based, HCV genotype 1b.
Procedure: Antiviral activity of the test compounds was assessed (Okuse, et al., Antivir. Res. (2005) 65:23) in the stably HCV RNA-replicating cell line, AVA5 (genotype 1b, subgenomic replicon, Blight, et al., Sci. (2000) 290:1972). Compounds were added to dividing cultures daily for three days. […] Intracellular HCV RNA levels and cytotoxicity were assessed 72 hours after treatment.
Intracellular HCV RNA levels were measured using a conventional blot hybridization method, in which HCV RNA levels are normalized to the levels of β-actin RNA in each individual culture (Okuse, et al., Antivir. Res. (2005) 65:23). Cytotoxicity was measured using an established neutral red dye uptake assay (Korba and Gerin, Antivir. Res. (1992) 19:55; Okuse, et al., Antivir. Res. (2005) 65:23). HCV RNA levels in the treated cultures are expressed as a percentage of the mean levels of RNA detected in untreated cultures. The absorbance of the internalized dye at 510 nM (A510) was used for quantitative analysis.
Values presented (±standard deviations [S.D.]) were calculated by linear regression analysis using data combined from all treated cultures. S.D. was calculated using the standard error of regression generated from the linear regression analyses (QuattroPro™).

In the next data set the test system is AVA5 cell line. Particulars: concentration giving 2-fold depression of neutral red dye uptake vs untreated cultures; daily treatment for three days, assessed at 72 hours; ± S.D. On the procedure: Compounds were added to dividing cultures daily for three days. […] Intracellular HCV RNA levels and cytotoxicity were assessed 72 hours after treatment.
Quadruplicate cultures for HCV RNA levels and cytoxicity (on 96-well plates) were used. A total of 12 untreated control cultures, and triplicate cultures treated with α-interferon (concentrations of: 10 IU/mL, 3.3 IU/mL, 1.1 IU/mL and 0.37 IU/mL) and 2′C-Me-C (concentrations of: 30 μM, 10 μM, 3.3 μM and 1.1 μM) served as assay controls.
HCV RNA levels in the treated cultures are expressed as a percentage of the mean levels of RNA detected in untreated cultures. The absorbance of the internalized dye at […] (A510) was used for quantitative analysis.
Compounds were dissolved in 100% tissue culture grade DMSO (Sigma, Inc.) at 10 mM. Aliquots of test compounds sufficient for one daily treatment were made in individual tubes and all material was stored at −20° C. For the test, the compounds were suspended into culture medium at room temperature, and immediately added to the cell cultures. Compounds were analyzed separately in two groups with separate assay controls. The concentrations of the test compounds were run at concentrations of 10 μM, 3.3 μM, 1.1 μM and 0.37 μM.

Turning to `CCOC(=O)C(COC(C)=O)(COP(=O)(OC[C@H]1O[C@@H](n2cnc(C(N)=O)n2)[C@H](O)[C@@H]1O)OCC(COC(C)=O)(C(=O)OCC)C(=O)OCC)C(=O)OCC` [Compound 14, Ribavirin 5′-bis[3-acetyloxy-2,2-bis(ethoxycarbonyl)propyl]phosphate], in data set [1], the EC50 was determined as 1.6 ± 0.2 µM, the concentration for an effect of 90% (EC90) is 4.4 ± 0.4 µM and the “Antiviral activity (in words)” value was “markedly more active compared to compound 12”. The molecule also registered a CC50 with AVA5 cell line of 9.7 ± 0.2 µM.
For `COC(=O)[C@H](C)NP(=O)(OC[C@H]1O[C@@H](n2cnc(C(N)=O)n2)[C@H](O)[C@@H]1O)Oc1ccccc1` (some centres unmarked) [Compound 12] the same measures were greater than 100 µM, greater than 100 µM, “inactive” and greater than 100 µM.
